Results as given in patent US20200038415A1, “AMINOSTEROL COMPOSITIONS AND METHODS OF USING THE SAME FOR TREATING ERECTILE DYSFUNCTION” (Enterin, Inc., priority 2018, published 2020).
“Also recorded” adds a separate entry of the source.

Columns and labels:
[1] = system: PD patients with constipation; test: Safety and adverse event profile, Stage 2; format: in vivo, human
Protocol: (§1) In Stage 2, 34 patients were evaluated.

[2] = system: PD patients with constipation; test: Safety and adverse event profile, Stage 1; format: in vivo, human
Excerpt: (§2) Tolerability limits included diarrhea or vomiting.

[3] = system: PD patients with constipation; test: Phase 2 trial Stage 2: bowel function under daily oral dosing (fixed dose, randomized period, wash-out); format: in vivo, human; conditions: Stage 2 fixed dose
Protocol: (§3) Following successful screening, all subjects underwent a 14-day run-in period where the degree of constipation was assessed through a validated daily log (Zinsmeister et al. 2013) establishing baseline CSBMs/week. Subjects with an average of <3 CSBMs/week proceeded to dosing.
as §1
The primary efficacy outcome variable was whether or not a subject was a “success” or “failure”. This is an endpoint based on subject diary entries for the “fixed dose” period prior to the endpoint assessment defined as average complete stool frequency increase by 1 or more over baseline, or 3 or more complete spontaneous stools/week. The subject was deemed a “success” if s/he met one or more of the criteria listed above, otherwise the subject was deemed a “failure”. The primary analysis was based on all subjects with a baseline assessment and an assessment at the end of the “fixed-dose” period and was a comparison of the proportion of successes with 0.10 (the null hypothesis corresponding to no treatment effect).
The proportion of subjects for whom the drug was a success was estimated with a binomial point estimate and corresponding 95% confidence interval. A secondary analysis compared the proportions of subjects who are deemed a success at the end of the randomized fixed-dose period between those randomized to the squalamine (ENT-01) arm and those randomized to the placebo arm. A Fisher's exact test was used to compare the proportions of subjects who were deemed a success at the end of randomization period between the two randomized arms

[4] = system: PD patients with constipation; test: Phase 2 trial Stage 1: prokinetic response to single escalating oral doses; format: in vivo, human; conditions: Example 1, FIG. 1A
Protocol: as §3, §2

[5] = system: PD patients with constipation; test: Safety and adverse event profile, Stage 1 and 2 combined (44 dosed); format: in vivo, human
Protocol: Fifty patients were enrolled and 44 were dosed. In Stage 1, 10 patients were dosed, 1 (10%) withdrew prior to completion and 9 (90%) completed dosing. In stage 2, 6 (15%) patients had ≥3 CSBM/week at the end of the run-in period and were excluded, 34 patients were dosed and bowel response was assessable in 31 (91%). Two patients (5.8%) were terminated prior to completion because of recurrent dizziness, and 3 others withdrew during dosing (8.8%): 2 because of diarrhea and 1 because of holiday. Fifteen patients were randomized.

[6] = Preclinical oral bioavailability and intestinal absorption in rats; format: in vivo; conditions: oral radioactive ENT-01, portal blood concentrations
[7] = system: PD patients with constipation; test: Circadian rhythm of wrist skin temperature; format: in vivo, human; conditions: for circadian rhythm of skin temperature: markers of healthy circadian function (IS, RA, CFI, IV): fixed dose vs baseline, 12 evaluable patients
Protocol: (6) I-Button Temperature Assessment. The I-Button is a small, rugged self-sufficient system that measures temperature and records the results in a protected memory section. The Thermochron I-Button DS1921H (Maxim Integrated, Dallas, Tex.) was used for skin temperature measurement. I-Buttons were programmed to sample every 10 mins., and attached to a double-sided cotton sport wrist band using Velcro, with the sensor face of the I-Button placed over the inside of the wrist, on the radial artery of the dominant hand. Subjects removed and replaced the data logger when necessary (i.e., to have a bath or shower). The value of skin temperature assessment in sleep research is that the endogenous skin warming resulting from increased skin blood flow is functionally linked to sleep propensity. From the collected data, the mesor, amplitude, acrophase (time of peak temperature), Rayleight test (an index of interdaily stability), mean waveforms are calculated.);
Assessments were made at baseline and at the end of the fixed dose and washout periods. Circadian system status was evaluated by continuously monitoring wrist skin temperature (Thermochron iButton DS1921H; Maxim, Dallas) following published procedures (Sarabia et al. 2008).
Circadian rhythm of skin temperature was evaluable in 12 patients (i.e., those who had recordings that extended from baseline through washout). Circadian system functionality was evaluated by continuously monitoring wrist skin temperature using a temperature sensor (Thermochron iButton DS1921H; Maxim, Dallas, Tex.) (Sarabia et al. 2008). […]
Briefly, this analysis includes the following parameters: (i) the inter-daily stability (the constancy of 24-hour rhythmic pattern over days, IS); (ii) intra-daily variability (rhythm fragmentation, IV); (iii) average of 10-minute intervals for the 10 hours with the minimum temperature (L10); (iv) average of 10-minute intervals for the 5 hours with the maximum temperature (M5) and the relative amplitude (RA), which was determined by the difference between M5 and L10, divided by the sum of both. […]

Solubility in water = format: physicochemical; conditions: phosphate salt

Q: With `CC(C)[C@@H](CC[C@@H](C)[C@H]1CC[C@H]2[C@@H]3[C@H](O)C[C@H]4C[C@@H](NCCCNCCCCN)CC[C@]4(C)[C@H]3CC[C@]12C)OS(=O)(=O)O` (single isomer, unassigned) [squalamine (ENT-01), squalamine] as the compound, how does the “patients who withdrew during dosing because of diarrhea” value ([1]; Stage 2) read?
A: The value was 2 patients.

Q: What about the “diarrhea, patients” value ([1]; Stage 2, 15/34 patients) of the same compound?
A: Its value is 44%.

Q: And the “Abdominal pain, Mild” value ([1]; Stage 2, 34 dosed)?
A: The value was 4 n.

Q: And the “Abdominal pain, Moderate” value ([1]; Stage 2, 34 dosed)?
A: Its value is 2 n.

Q: And the “Blood in urine, Mild” value ([1]; Stage 2, 34 dosed)?
A: The value was 0 n.

Q: What about the “Blood in urine, Moderate” value ([1]; Stage 2, 34 dosed) of the same compound?
A: The value was 0 n.

Q: What about the “Diarrhea, Mild” value ([1]; Stage 2, 34 dosed) of the same compound?
A: The value was 12 n.

Q: What about the “Diarrhea, Moderate” value ([1]; Stage 2, 34 dosed) of the same compound?
A: The value was 2 n.

Q: And the “Diarrhea, Severe” value ([1]; Stage 2, 34 dosed)?
A: Its value is 1 n.

Q: And the “Difficulty falling asleep, Mild” value ([1]; Stage 2, 34 dosed)?
A: Its value is 1 n.

Q: And the “Difficulty falling asleep, Moderate” value ([1]; Stage 2, 34 dosed)?
A: Its value is 0 n.

Q: What about the “Dizziness, Mild” value ([1]; Stage 2, 34 dosed) of the same compound?
A: The value was 7 n.

Q: And the “Dizziness, Moderate” value ([1]; Stage 2, 34 dosed)?
A: Its value is 1 n.

Q: And the “Eye infection, Mild” value ([1]; Stage 2, 34 dosed)?
A: Its value is 1 n.

Q: And the “Eye infection, Moderate” value ([1]; Stage 2, 34 dosed)?
A: Its value is 0 n.

Q: What about the “Flatulence, Mild” value ([1]; Stage 2, 34 dosed) of the same compound?
A: Its value is 1 n.

Q: And the “Flatulence, Moderate” value ([1]; Stage 2, 34 dosed)?
A: The value was 0 n.

Q: What about the “Headache, Mild” value ([1]; Stage 2, 34 dosed) of the same compound?
A: Its value is 3 n.

Q: And the “Headache, Moderate” value ([1]; Stage 2, 34 dosed)?
A: Its value is 0 n.

Q: And the “Increased urinary frequency, Mild” value ([1]; Stage 2, 34 dosed)?
A: The value was 2 n.

Q: What about the “Increased urinary frequency, Moderate” value ([1]; Stage 2, 34 dosed) of the same compound?
A: The value was 0 n.

Q: What about the “Loss of appetite, Mild” value ([1]; Stage 2, 34 dosed) of the same compound?
A: The value was 0 n.

Q: And the “Loss of appetite, Moderate” value ([1]; Stage 2, 34 dosed)?
A: The value was 0 n.

Q: What about the “Nausea, Mild” value ([1]; Stage 2, 34 dosed) of the same compound?
A: The value was 18 n.

Q: And the “Nausea, Moderate” value ([1]; Stage 2, 34 dosed)?
A: The value was 1 n.

Q: What about the “Skin lesions-rash, Mild” value ([1]; Stage 2, 34 dosed) of the same compound?
A: The value was 3 n.

Q: What about the “Skin lesions-rash, Moderate” value ([1]; Stage 2, 34 dosed) of the same compound?
A: Its value is 0 n.

Q: What about the “Urinary retention, Mild” value ([1]; Stage 2, 34 dosed) of the same compound?
A: Its value is 1 n.

Q: What about the “Urinary retention, Moderate” value ([1]; Stage 2, 34 dosed) of the same compound?
A: The value was 0 n.

Q: And the “Urinary tract infection, Mild” value ([1]; Stage 2, 34 dosed)?
A: Its value is 1 n.

Q: And the “Urinary tract infection, Moderate” value ([1]; Stage 2, 34 dosed)?
A: Its value is 2 n.

Q: What about the “Vomiting, Mild” value ([1]; Stage 2, 34 dosed) of the same compound?
A: Its value is 2 n.

Q: And the “Vomiting, Moderate” value ([1]; Stage 2, 34 dosed)?
A: Its value is 0 n.

Q: And the “Worsening acid reflux, Mild” value ([1]; Stage 2, 34 dosed)?
A: Its value is 4 n.

Q: And the “Worsening acid reflux, Moderate” value ([1]; Stage 2, 34 dosed)?
A: Its value is 0 n.

Q: And the “Worsening hemorrhoid, Mild” value ([1]; Stage 2, 34 dosed)?
A: The value was 1 n.

Q: What about the “Worsening hemorrhoid, Moderate” value ([1]; Stage 2, 34 dosed) of the same compound?
A: Its value is 0 n.

Q: And the “AEs confined to the GI tract” value ([1]; Stage 2, share of AEs)?
A: Its value is 63%.

Q: What about the “Lower GI bleed, Severe” value ([1]; Stage 2, Unrelated to ENT-01) of the same compound?
A: Its value is 1 n.

Q: What about the “lower GI bleed (Serious adverse event, SAE)” value ([1]; during the withdrawal period, considered unrelated to study medication) of the same compound?
A: The value was “One patient”.

Q: What about the “diarrhea, patients” value ([2]; Stage 1, 4/10 patients) of the same compound?
A: Its value is 40%.

Q: What about the “nausea, patients” value ([2]; Stage 1, 4/10 patients) of the same compound?
A: The value was 40%.

Q: What about the “AEs confined to the GI tract” value ([2]; Stage 1, share of AEs) of the same compound?
A: The value was 88%.

Q: What about the “CSBM, weekly average (mean, SD)” value ([3]; n=34, baseline 1.2 (0.90)) of the same compound?
A: Its value is 3.8 /week.

Q: And the “SBM, weekly average (mean, SD)” value ([3]; n=34, baseline 2.6 (1.45))?
A: Its value is 4.5 /week.

Q: And the “Suppository use / rescue medication, weekly average (mean, SD)” value ([3]; baseline 1.8 (1.92))?
A: The value was 0.3 /week.

Q: And the “Consistency, Bristol stool scale (mean, SD)” value ([3]; scale 1-7, baseline 2.7 (1.20), listed as aminosterol)?
A: The value was 4.1.

Q: And the “Ease of passage, Ease of evacuation scale (mean, SD)” value ([3]; scale 1-7, baseline 3.2 (0.73), listed as aminosterol)?
A: Its value is 3.7.

Q: And the “subjects responded with improved bowel function” value [4]?
A: The value was 80%.

Q: And the “worsening of hemorrhoids, patients” value ([5]; 1/44 patients)?
A: Its value is 2.2%.

Q: What about the “worsening of acid reflux, patients” value ([5]; 2/44 patients) of the same compound?
A: Its value is 4.5%.

Q: And the “flatulence, patients” value ([5]; 3/44 patients)?
A: Its value is 6.8%.

Q: And the “vomiting, patients” value ([5]; 3/44 patients)?
A: The value was 6.8%.

Q: And the “dizziness, patients” value ([5]; 8/44 patients)?
A: Its value is 18%.

Q: What about the “abdominal pain, patients” value ([5]; 11/44 patients) of the same compound?
A: Its value is 32%.

Q: What about the “outcome of all other AEs” value ([5]; in vivo) of the same compound?
A: The value was “resolved spontaneously without discontinuation”.

Q: What about the “absorption from the intestine” value [6] of the same compound?
A: The value was “low”.

Q: What about the “circadian rhythm of skin temperature: markers of healthy circadian function (IS, RA, CFI, IV)” value [7] of the same compound?
A: The value was “significant positive impact; also recorded: improved all markers of healthy circadian function”.

Q: What about the “circadian rhythm of skin temperature: markers of healthy circadian function (IS, RA, CFI, IV)” value ([7]; listed as Aminosterol) of the same compound?
A: The value was “improved all markers of healthy circadian function”.

Q: And the “circadian parameters during wash-out (IS, CFI)” value ([7]; wash-out period)?
A: Its value is “improvement persisted for several of these circadian parameters”.

Q: And the solubility in water (Solubility in water; neutral pH)?
A: Its solubility in water is “weakly soluble”.

Q: And the solubility in water (Solubility in water; pH<3.5 (the pH of gastric fluid))?
A: Its solubility in water is “readily dissolves”.
